Assay results taken from patent publication US20100286028A1, “USE OF A PEPTIDE AS A THERAPEUTIC AGENT” (priority 2007, published 2010).
No end group written: not given here.

Key:
HIV-1IIIB = experiment: HIV-1 antiviral assay in CEM-SS cells; settings: peptides 10 micrograms per ml; CEM-SS cells plus HIV-1IIIB; MTS readout 6 days post-infection
HCMV strain AD169 = experiment: HCMV plaque formation assay in MRC-5 cells; settings: peptides 10 micrograms per ml, 7-10 days
[1] = tested on: hepatitis B virus (HBV) ayw strain; experiment: HBV experimental assay system (HepG2-2.2.15, TaqMan PCR of secreted HBV DNA); type: cell-based; settings: 10 micrograms per ml, six days, HBV DNA by TaqMan PCR, combination 0.95 mole peptide 1 and 1.05 mole peptide 2
Streptococcus pneumoniae = Streptococcus pneumoniae assay; type: cell-based; settings: 10 micrograms per ml; 5x10^5 CFU/mL; read visually; combination 0.95 mole peptide 1 and 1.05 mole peptide 2 and all other molar ratios from 1:100 to 100:1
murine spleen cells = experiment: Th1/Th2 cytokine profiling assay; type: cell-based, Balb/c mice; settings: 10 micrograms per ml, Ovalbumin-restimulated spleen cells, 72 hours
Description: The Balb/c mice (originated in 1923, it is a popular strain and is used in many different research disciplines. Also classified as an inbred from the production of 20 or more successive brother-sister matings, the Balb/c mouse is albino and small in size) were immunized on Days 1, 15, and 29 with Ovalbumin (Ovalbumin is the main protein found in egg white, commonly used to stimulate an immunological reaction in test animals) in PBS (5 micrograms/injection). On day 50, spleens of the mice were harvested (3 weeks after last boost with Ovalbumin). […] Thereafter, additional Ovalbumin was added to the cells at 10 micrograms/ml for in vitro restimulation of the cells. 72 hours later, cell supernatants were harvested and assayed using the Becton Dickinson Mouse Th1/Th2 Cytokine CBA Kit. This kit can be used to measure Interleukin-2 (IL-2), Interleukin-4 (IL-4), Interleukin-5 (IL-5), Interferon-γ (IFN-γ), and Tumor Necrosis Factor-a (TNF-a) protein levels in a single sample.

[2] = tested on: Primary Human endothelial cells (HUVEC); experiment: Endothelial cell migration assay; type: cell-based; settings: 10 micrograms per ml, 22 hours, combination peptide 1:peptide 2 1.10 mole:0.90 mole
HUVEC = experiment: Endothelial tube formation assay; type: cell-based, human; settings: 10 micrograms per ml, 20 hours, average tubule length, combination peptide 1:peptide 2 1.10 mole:0.90 mole
Description: Positive control was vehicle only.

[3] = combination 0.95 mole peptide 1 and 1.05 mole peptide 2

Row | Compound | inhibition of HIV-1 activity on tested T-cells (HIV-1IIIB) | inhibition of HCMV plaque formation as compared to the virus control experiment (HCMV strain AD169) | inhibition of HBV replication as compared to the virus control infection [1] [%] | inhibition of the growth of Streptococcus pneumoniae (Streptococcus pneumoniae) [%] | production of IL-4 in murine spleen cells, suppressed by (murine spleen cells) [%] | change of the production of IL-5 in murine spleen cells (murine spleen cells; [3]) | production of IFN-γ in murine spleen cells, induced by (murine spleen cells; [3]) | production of IL-2 in murine spleen cells, induced by (murine spleen cells; [3]) | production of TNF-alpha in murine spleen cells, induced by (murine spleen cells; [3]) [%] | inhibition of the migration of human endothelial cells [2] [%] | increase of the tube formation of human endothelial cells (HUVEC) [%] | production of IL-4 in murine spleen cells, induced by (murine spleen cells; [3]) [%]
1 | Cc1cn([C@H]2C[C@H](N=[N+]=[N-])[C@@H](CO)O2)c(=O)[nH]c1=O [AZT] | expected levels of antiviral activity | – | – | – | – | – | – | – | – | – | – | –
2 | Nc1nc(O)c2ncn(COC(CO)CO)c2n1 [Ganciclovir, reference compound] | – | expected levels of antiviral activity | – | – | – | – | – | – | – | – | – | –
3 | CC(C)(C)NC(=O)[C@@H]1CN(Cc2cccnc2)CCN1C[C@@H](O)C[C@@H](Cc1ccccc1)C(=O)N[C@H]1c2ccccc2C[C@H]1O [indinavir] | expected levels of antiviral activity | – | – | – | – | – | – | – | – | – | – | –
4 | Cys-Tyr-Phe-Gln-Asn-Cys-Pro-Arg-Gly-NH2 (CYFQNCPRG-NH2; ends and bridges not checked) [Peptide 2] | – | did not inhibit | 26.3 | 100 | 59.6 | did not significantly change | did not significantly change | did not significantly change | 24.9 | 5 | 4 | –
5 | PALPEDGGSGAFPPGHFKDPKRLY [Peptide 1] | – | did not inhibit | 24.3 | 100 | – | did not significantly change | 30.3% | 77.4% | 30.0 | 17 | 2 | 123.9
